Laboratory results from paper PMC8397297 (ACS Chemical Neuroscience, 2021).
Like-named read-outs stand apart in the source and are kept apart here. Each block holds one compound with its values, some of them ahead of it.

Tests used:
mGAT2 [1] = biological target: T1, mGAT2 (Mus musculus, UniProt P31651); conditions: cited from earlier work; for remaining [3H]GABA uptake mGAT2: 100 μM inhibitor
T1 construct: expressed in transfected cells; host or cells: HEK-293
T1 sequence (P31651 1-614): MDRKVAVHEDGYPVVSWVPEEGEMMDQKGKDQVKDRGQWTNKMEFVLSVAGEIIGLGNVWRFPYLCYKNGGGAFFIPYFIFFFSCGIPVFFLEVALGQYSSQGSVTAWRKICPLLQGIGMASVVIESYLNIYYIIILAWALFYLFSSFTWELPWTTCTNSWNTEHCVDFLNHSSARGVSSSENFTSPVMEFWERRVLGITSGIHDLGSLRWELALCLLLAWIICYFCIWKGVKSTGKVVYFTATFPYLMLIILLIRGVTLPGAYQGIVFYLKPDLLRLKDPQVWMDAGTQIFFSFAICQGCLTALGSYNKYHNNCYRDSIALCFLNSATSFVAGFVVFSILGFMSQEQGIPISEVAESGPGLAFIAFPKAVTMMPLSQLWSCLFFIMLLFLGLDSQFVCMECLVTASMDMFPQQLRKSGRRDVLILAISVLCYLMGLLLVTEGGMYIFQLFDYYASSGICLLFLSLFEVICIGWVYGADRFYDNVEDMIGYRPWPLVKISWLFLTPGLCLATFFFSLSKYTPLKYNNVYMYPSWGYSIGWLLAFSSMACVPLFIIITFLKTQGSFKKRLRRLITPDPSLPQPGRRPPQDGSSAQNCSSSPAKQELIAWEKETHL

mGAT1 [2] = biological target: T2, mGAT1 (Mus musculus, UniProt P31648); conditions: Figure 2; cited from earlier work
T2 construct: expressed in transfected cells; host or cells: HEK-293

mGAT3 [3] = biological target: T3, mGAT3 (Mus musculus, UniProt P31649); conditions: cited from earlier work
T3 construct: expressed in transfected cells; host or cells: HEK-293
T3 sequence (P31649 1-602): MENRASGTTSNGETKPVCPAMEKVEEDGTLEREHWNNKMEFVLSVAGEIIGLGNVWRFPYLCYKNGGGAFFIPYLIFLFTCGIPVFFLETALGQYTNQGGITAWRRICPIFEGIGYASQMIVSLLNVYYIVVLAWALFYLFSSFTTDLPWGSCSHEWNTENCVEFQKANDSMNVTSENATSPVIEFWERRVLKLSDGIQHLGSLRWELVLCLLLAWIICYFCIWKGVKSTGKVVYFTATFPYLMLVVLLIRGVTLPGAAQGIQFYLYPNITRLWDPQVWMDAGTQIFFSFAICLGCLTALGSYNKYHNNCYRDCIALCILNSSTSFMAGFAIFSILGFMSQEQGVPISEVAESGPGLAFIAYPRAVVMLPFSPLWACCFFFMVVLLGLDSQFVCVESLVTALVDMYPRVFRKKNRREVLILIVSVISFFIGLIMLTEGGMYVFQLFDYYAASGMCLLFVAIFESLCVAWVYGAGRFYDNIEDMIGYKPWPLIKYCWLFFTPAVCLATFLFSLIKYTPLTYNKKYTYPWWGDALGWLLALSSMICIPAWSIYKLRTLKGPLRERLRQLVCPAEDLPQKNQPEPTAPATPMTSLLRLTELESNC

mGAT4 [4] = biological target: T4, mGAT4 (Mus musculus, UniProt P31650); conditions: cited from earlier work
T4 construct: expressed in transfected cells; host or cells: HEK-293
T4 sequence (P31650 1-627): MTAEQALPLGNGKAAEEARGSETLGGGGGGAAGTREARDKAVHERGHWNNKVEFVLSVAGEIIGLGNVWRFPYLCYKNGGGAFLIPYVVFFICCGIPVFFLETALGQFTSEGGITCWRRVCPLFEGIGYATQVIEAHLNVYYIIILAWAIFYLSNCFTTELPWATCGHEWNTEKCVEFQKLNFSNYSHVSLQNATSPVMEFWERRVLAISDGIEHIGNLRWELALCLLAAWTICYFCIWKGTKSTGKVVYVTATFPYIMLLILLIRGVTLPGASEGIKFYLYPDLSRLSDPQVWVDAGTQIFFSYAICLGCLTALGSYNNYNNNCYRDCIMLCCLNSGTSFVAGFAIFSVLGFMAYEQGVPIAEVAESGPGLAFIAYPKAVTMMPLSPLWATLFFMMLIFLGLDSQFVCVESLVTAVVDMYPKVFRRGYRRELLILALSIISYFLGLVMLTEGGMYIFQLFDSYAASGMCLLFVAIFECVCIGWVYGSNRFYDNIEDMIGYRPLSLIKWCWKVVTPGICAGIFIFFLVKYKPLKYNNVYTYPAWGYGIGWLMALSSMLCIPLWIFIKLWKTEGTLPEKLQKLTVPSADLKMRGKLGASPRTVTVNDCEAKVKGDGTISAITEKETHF

mGAT1 [5] = biological target: T2, mGAT1; conditions: 100 μM inhibitor; cited from earlier work
mGAT1 [6] = biological target: T2, mGAT1; assay: [3H]GABA uptake assay in HEK-293 cells stably expressing mGAT1; type: cell-based; conditions: in the presence of 100 μM inhibitor
mGAT1 [7] = biological target: T2, mGAT1; assay: competitive MS binding assay with NO711 as unlabeled marker (LC-ESI-MS/MS); conditions: for remaining NO711 binding mGAT1: in the presence of 100 μM inhibitor
Procedure, shortened: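 Competitive MS binding with unlabeled NO711 as marker, quantified by LC–ESI-MS/MS. Compounds screened at 100 μM for inhibition of marker binding.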

mGAT4 [8] = biological target: T4, mGAT4; assay: [3H]GABA uptake assay in HEK-293 cells stably expressing mGAT4; type: cell-based; conditions: for IC50: [3H]GABA uptake, read-out: pIC50 ± SEM mGAT4 (converted); for remaining [3H]GABA uptake mGAT4: in the presence of 100 μM inhibitor
mGAT2 [9] = biological target: T1, mGAT2; assay: [3H]GABA uptake assay in HEK-293 cells stably expressing mGAT2; type: cell-based; conditions: in the presence of 100 μM inhibitor
mGAT3 [10] = biological target: T3, mGAT3; assay: [3H]GABA uptake assay in HEK-293 cells stably expressing mGAT3; type: cell-based; conditions: for IC50: [3H]GABA uptake, read-out: pIC50 ± SEM mGAT3 (converted); for remaining [3H]GABA uptake mGAT3: in the presence of 100 μM inhibitor

Compound: COc1ccc(C(OCCN2CCC[C@H](C(=O)O)C2)(c2ccc(OC)cc2)c2ccc(OC)cc2)cc1 [(S)-SNAP-5114, (S)-1-{2-[Tris(4-methoxyphenyl)methoxy]ethyl}piperidine-3-carboxylic acid]
remaining [3H]GABA uptake mGAT2 (mGAT2 [1]): 100 μM: 56% | mGAT2 % (100μM) (mGAT2 [1]): 56%

Compound: O=C(O)[C@@H]1CCCN(CCC#Cc2ccccc2-c2ccc(F)cc2Cl)C1 [Compound 7]
pIC50 mGAT1 (mGAT1 [2]): 7.68 | pIC50 mGAT3 (mGAT3 [3]; Figure 2): 4.56 | pIC50 mGAT4 (mGAT4 [4]; Figure 2): 4.29 | mGAT2 % (100μM) (mGAT2 [1]): 55%

Compound: COc1ccc(C(OCCN2CCC[C@H](C(=O)O)C2)(c2ccc(OC)cc2)c2ccc(-c3ccc(C=O)cc3)cc2)cc1 [Compound 11]
pIC50 mGAT3 (mGAT3 [3]; Figure 2): 5.16 | mGAT2 % (100μM) (mGAT2 [1]): 73%

Compound: O=C1Nc2ccc(-c3cccs3)cc2C1=O [Compound 12]
pIC50 mGAT1 (mGAT1 [2]): < 3 | pIC50 mGAT2 (mGAT2 [1]; Figure 2): 3.21

Compound: Cc1ccsc1C(=CCCN(C)C(CCO)C(=O)NCc1ccccc1Cl)c1sccc1C (stereo not drawn) [Compound 13]
remaining NO711 binding mGAT1 (mGAT1 [5]): 100 μM: 77% | pIC50 mGAT3 (mGAT3 [3]; [3H]GABA uptake): 5.31 ± 0.04 | pIC50 mGAT2 (mGAT2 [1]; [3H]GABA uptake): 4.98 ± 0.05

remaining [3H]GABA uptake mGAT1 (mGAT1 [6]): 100 μM: 52% | remaining NO711 binding mGAT1 (mGAT1 [7]): 100 μM: 103% | IC50 (mGAT4 [8]): 63.1 µM | remaining [3H]GABA uptake mGAT2 (mGAT2 [9]): 100 μM: 54% | IC50 (mGAT3 [10]): 21.9 µM
Compound: CCOC(=O)[C@H](C)N(C)CCC=C1c2ccccc2C=Cc2ccccc21 [Compound 71, Ethyl N-(3-(5H-Dibenzo[a,d][7]annulen-5-ylidene)propyl)-N-methylalaninate]

remaining [3H]GABA uptake mGAT1 (mGAT1 [6]): 100 μM: 98% | remaining NO711 binding mGAT1 (mGAT1 [7]): 100 μM: 109% | remaining [3H]GABA uptake mGAT4 (mGAT4 [8]): 100 μM: 97% | remaining [3H]GABA uptake mGAT2 (mGAT2 [9]): 100 μM: 63% | remaining [3H]GABA uptake mGAT3 (mGAT3 [10]): 100 μM: 86%
Compound: C[C@@H](C(=O)OCc1ccccc1)N(C)CCC=C1c2ccccc2C=Cc2ccccc21 [Compound 72, Benzyl N-(3-(5H-Dibenzo[a,d][7]annulen-5-ylidene)propyl)-N-methylalaninate]

remaining [3H]GABA uptake mGAT1 (mGAT1 [6]): 100 μM: 55% | remaining NO711 binding mGAT1 (mGAT1 [7]): 100 μM: 94% | IC50 (mGAT4 [8]): 52.5 µM | remaining [3H]GABA uptake mGAT2 (mGAT2 [9]): 100 μM: 52% | IC50 (mGAT3 [10]): 25.1 µM
Compound: CCOC(=O)C(C)N(C)CCC=C(c1sccc1C)c1sccc1C (stereo not drawn) [Compound 73, Ethyl 2-((4,4-Bis(3-methylthiophen-2-yl)but-3-en-1-yl)(methyl)amino)propanoate]

remaining [3H]GABA uptake mGAT1 (mGAT1 [6]): 100 μM: 55% | Ki (mGAT1 [7]; MS binding assay, read-out: pKi ± SEM mGAT1 (converted)): 28.8 µM | remaining [3H]GABA uptake mGAT4 (mGAT4 [8]): 100 μM: 77% | remaining [3H]GABA uptake mGAT2 (mGAT2 [9]): 100 μM: 55% | remaining [3H]GABA uptake mGAT3 (mGAT3 [10]): 100 μM: 62%
Compound: C[C@@H](C(=O)O)N(C)CCC=C1c2ccccc2C=Cc2ccccc21 [Compound 74, N-(3-(5H-Dibenzo[a,d][7]annulen-5-ylidene)propyl)-N-methylalanine]

remaining [3H]GABA uptake mGAT1 (mGAT1 [6]): 100 μM: 71% | remaining NO711 binding mGAT1 (mGAT1 [7]): 100 μM: 81% | remaining [3H]GABA uptake mGAT4 (mGAT4 [8]): 100 μM: 60% | remaining [3H]GABA uptake mGAT2 (mGAT2 [9]): 100 μM: 59% | remaining [3H]GABA uptake mGAT3 (mGAT3 [10]): 100 μM: 52%
Compound: Cc1ccsc1C(=CCCN(C)C(C)C(=O)O)c1sccc1C (stereo not drawn) [Compound 75, 2-((4,4-Bis(3-methylthiophen-2-yl)but-3-en-1-yl)(methyl)amino)propanoic Acid]

Compound: O=C(O)C1=CCCN(CCO/N=C/c2ccccc2-c2ccc(Cl)cc2Cl)C1 [DDPM-2571]
pIC50 mGAT3 (mGAT3 [3]; [3H]GABA uptake): 4.35

Compound: Cc1ccsc1C(=CCCN1CCC[C@@H](C(=O)O)C1)c1sccc1C [tiagabine, (R)-1-[4,4-bis(3-methyl-2-thienyl)-3-butenyl]-3-piperidinecarboxylic acid]
remaining [3H]GABA uptake mGAT3 (mGAT3 [3]; 100 μM inhibitor): 100 μM: 64% | mGAT3 % (100μM) (mGAT3 [3]; 100μM): 64% | remaining [3H]GABA uptake mGAT4 (mGAT4 [4]; 100 μM inhibitor): 100 μM: 73% | mGAT4 % (100μM) (mGAT4 [4]; 100μM): 73% | remaining [3H]GABA uptake mGAT2 (mGAT2 [1]): 100 μM: 52%

Compound: NCCC(=O)O [β-alanine]
pIC50 mGAT2 (mGAT2 [1]; Figure 2): 2.96
